From patent US20020137929A1, “1 - (3-heterocyclylphenyl) isothiourea, -isourea, -guanidine and -amidine herbicidal agents” (Intellectual Property Department, BASF Aktiengesellschaft, priority 1998, published 2002)

How the values were obtained:
[1] = test system: TRZAWR (Wheat, Winter, cv Riband); test: Preemergence herbicidal evaluation; type: in vivo, Triticum aestivum; conditions: rated 4-5 weeks after treatment
How it was run: (§1)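 Seeds were mixed with potting soil and planted on about one inch of soil, then sprayed with test compound in aqueous acetone at about 0.0156 to 0.500 kg per hectare. Plants grew under standard greenhouse care and were visually rated 0-9 against untreated controls 4-5 weeks post-treatment.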

[2] = test system: GLXMAW (Soybean, Williams); test: Preemergence herbicidal evaluation; type: in vivo, Glycine max, (L.) Merr. cv Williams; conditions: rated 4-5 weeks after treatment
How it was run: as §1

[3] = test system: MOOVA (Monochoria); test: Postemergence weed control under flooded paddy conditions; type: in vivo, Monochoria vaginalis; conditions: postemergence weeds, rated 3 to 4 weeks after treatment
How it was run: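 With weeds 3 to 5 cm tall and rice at the 1.5 to 2.5 leaf stage, containers were flooded and water held 1.5 to 3 cm above soil. Compounds in 50/50 v/v aqueous/acetone went into the flood water at about 0.0313 to 0.500 kg/ha a.i. Effects were visually rated 0–9 against controls after three to four weeks in the greenhouse.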

[4] = test system: ORYSAT (Rice, Tebonnet); test: Preemergence herbicidal evaluation; type: in vivo, Oryza sativa, (L.) Tebonnet; conditions: rated 4-5 weeks after treatment
How it was run: as §1

[5] = test system: CASOB (Sicklepod); test: Postemergence herbicidal evaluation; type: in vivo, Cassia obtusifolia; conditions: postemergence
How it was run: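 Compound is applied as a foliar spray to seedlings about two weeks old, formulated in equal parts acetone and water with 0.5% TWEEN 20 and delivered at 40 psi to give about 0.0156–0.500 kg per hectare. Injury is rated visually 0–9 after four to five weeks.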

[6] = test system: SAGPY (Arrowhead (Pygmaea)); test: Preemergence weed control under flooded paddy conditions; type: in vivo, Sagittaria pygmaea; conditions: rated 3-4 weeks after treatment
How it was run: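 Visual injury scored 0-9 against control three to four weeks post-treatment, greenhouse-grown. Application: acetone/water (50/50) solutions dosed directly into flood water (1.5-3 cm over silt loam, planted top 0.5 cm), roughly 0.0313 to 0.500 kg/ha active ingredient.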

Compound | Preemergence herbicidal rating TRZAWR ([1]; rate 0.0156 kg/ha) | Preemergence herbicidal rating TRZAWR ([1]; rate 0.0313 kg/ha) | Preemergence herbicidal rating TRZAWR ([1]; rate 0.0625 kg/ha) | Preemergence herbicidal rating TRZAWR ([1]; rate 0.1250 kg/ha) | Preemergence herbicidal rating TRZAWR ([1]; rate 0.2500 kg/ha) | Preemergence herbicidal rating GLXMAW ([2]; rate 0.0156 kg/ha) | Preemergence herbicidal rating GLXMAW ([2]; rate 0.0313 kg/ha) | Preemergence herbicidal rating GLXMAW ([2]; rate 0.0625 kg/ha) | Preemergence herbicidal rating GLXMAW ([2]; rate 0.1250 kg/ha) | Preemergence herbicidal rating GLXMAW ([2]; rate 0.2500 kg/ha) | Herbicidal rating MOOVA ([3]; Rate 0.0313 kg/ha) | Herbicidal rating MOOVA ([3]; Rate 0.0625 kg/ha) | Herbicidal rating MOOVA ([3]; Rate 0.1250 kg/ha) | Herbicidal rating MOOVA ([3]; Rate 0.2500 kg/ha) | Preemergence herbicidal rating ORYSAT ([4]; rate 0.0156 kg/ha) | Preemergence herbicidal rating ORYSAT ([4]; rate 0.0313 kg/ha) | Preemergence herbicidal rating ORYSAT ([4]; rate 0.0625 kg/ha) | Preemergence herbicidal rating ORYSAT ([4]; rate 0.1250 kg/ha) | Preemergence herbicidal rating ORYSAT ([4]; rate 0.2500 kg/ha) | CASOB herbicidal rating ([5]; rate 0.0158 kg/ha) | other results
CC(C)S(=O)(=O)NC(=O)CC1SC(=Nc2cc(-n3c(=O)cc(C(F)(F)F)n(C)c3=O)c(F)cc2Cl)N(C)C1=O (centres unmarked) [Compound 119, 2-{{2-Chloro-5-[3,6-dihydro-3-methyl-2,6-dioxo-4-(trifluoromethyl)-1(2H)-pyrimidinyl]-4-fluorophenyl}imino}-N-(isopropylsulfonyl)-3-methyl-4-oxo-5-thiazolidineacetamide] | 0.0 | 0.0 | 0.0 | 0.0 | 0.0 | 0.0 | 0.0 | 0.0 | 1.0 | 2.0 | 4.0 | 7.0 | 8.0 | 9.0 | 0.0 | 0.0 | 0.0 | 0.0 | 0.0 | – | Herbicidal rating CASOB ([5]; rate 0.0156 kg/ha): 3.0; Herbicidal rating CASOB ([5]; rate 0.0313 kg/ha): 5.0; Herbicidal rating CASOB ([5]; rate 0.0625 kg/ha): 7.0; herbicidal effect rating, SAGPY ([6]; 0.0313 kg/ha): 2.5; herbicidal effect rating, SAGPY ([6]; 0.0625 kg/ha): 3.0; herbicidal effect rating, SAGPY ([6]; 0.1250 kg/ha): 3.5; herbicidal effect rating, SAGPY ([6]; 0.2500 kg/ha): 4.5
C=CCOC(=O)CC1SC(=Nc2cc(-n3c(=O)cc(C(F)(F)F)n(C)c3=O)c(F)cc2Cl)N(CC=C)C1=O (centres unmarked) [Compound 65, Allyl 3-allyl-2-{(2-chloro-5-[3,6-dihydro-3-methyl-2,6-dioxo-4-(trifluoromethyl)-1(2H)-pyrimidinyl]-4-fluorophenyl}imino}-4-oxo-5-thiazolidineacetate] | – | 0.0 | 1.0 | 1.0 | 3.0 | 1.0 | 0.0 | 1.0 | 2.0 | 5.0 | 9.0 | 9.0 | 9.0 | 9.0 | 0.0 | 0.0 | 1.0 | 1.0 | 6.0 | 0.0 | CASOB herbicidal rating ([5]; rate 0.0315 kg/ha): 2.0; CASOB herbicidal rating ([5]; rate 0.0630 kg/ha): 3.0; SAGPY herbicidal effect rating ([6]; 0.0313 kg/ha): 2.0; SAGPY herbicidal effect rating ([6]; 0.0625 kg/ha): 4.0; SAGPY herbicidal effect rating ([6]; 0.1250 kg/ha): 5.0; SAGPY herbicidal effect rating ([6]; 0.2500 kg/ha): 7.0
C#CCOC(=O)CC1SC(=Nc2cc(-n3c(=O)cc(C(F)(F)F)n(C)c3=O)c(F)cc2Cl)N(CC=C)C1=O (centres unmarked) [Compound 67, 2-Propynyl 3-allyl-2-{{2-chloro-5-[3,6-dihydro-3-methyl-2,6-dioxo-4-(trifluoromethyl)-1(2H)-pyrimidinyl]-4-fluorophenyl}imino}-4-oxo-5-thiazolidineacetate] | 0.0 | 0.0 | 0.0 | 1.0 | 1.0 | 0.0 | 1.0 | 2.0 | 2.0 | 2.0 | 9.0 | 9.0 | 9.0 | 9.0 | 0.0 | 0.0 | 0.0 | 1.0 | 1.0 | 0.0 | CASOB herbicidal rating ([5]; rate 0.0315 kg/ha): 2.0; CASOB herbicidal rating ([5]; rate 0.0630 kg/ha): 3.0; SAGPY herbicidal effect rating ([6]; 0.0313 kg/ha): 0.0; SAGPY herbicidal effect rating ([6]; 0.0625 kg/ha): 4.0; SAGPY herbicidal effect rating ([6]; 0.1250 kg/ha): 4.0; SAGPY herbicidal effect rating ([6]; 0.2500 kg/ha): 6.0
